The target in this assay is T1, human Cav3.2 channels (Homo sapiens, UniProt O95180).
T1 construct: human Cav3.2 channel ORF (Open Reading Frame) gene; expressed in transfected cells; host or cells: HEK293 cells (ATCC No. CRL-1573), pcDNA3.1(+) plasmid
The assay is described as follows: T-type calcium blocking action: intracellular calcium (Fluo-4 AM fluorescence) in HEK293 cells steadily expressing human Cav3.2 channels. Format: cell-based. As to conditions: HEK293 cells expressing human Cav3.2; KCl-stimulated calcium influx, Fluo-4 fluorescence; Tables 1 to 3. Put shortly: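 Fluo-4 AM-loaded stable HEK293 cells were preincubated 15 min at RT with compound (0.1% DMSO final) in choline-based buffer (pH 7.3). Gramicidin was added, then KCl-induced calcium influx was read at 485/510 nm for 10 s. Percent block came from peak rise over baseline, and IC50 from log-concentration plots.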

This is an account of results in patent US20220226299A1 (NIPPON CHEMIPHAR CO., LTD., priority 2019, published 2022).

Structures can show the parent of a compound that is named as a salt.

As a reminder, the IC50 is the concentration needed to halve the response being measured.

T1 sequence (O95180 whole entry): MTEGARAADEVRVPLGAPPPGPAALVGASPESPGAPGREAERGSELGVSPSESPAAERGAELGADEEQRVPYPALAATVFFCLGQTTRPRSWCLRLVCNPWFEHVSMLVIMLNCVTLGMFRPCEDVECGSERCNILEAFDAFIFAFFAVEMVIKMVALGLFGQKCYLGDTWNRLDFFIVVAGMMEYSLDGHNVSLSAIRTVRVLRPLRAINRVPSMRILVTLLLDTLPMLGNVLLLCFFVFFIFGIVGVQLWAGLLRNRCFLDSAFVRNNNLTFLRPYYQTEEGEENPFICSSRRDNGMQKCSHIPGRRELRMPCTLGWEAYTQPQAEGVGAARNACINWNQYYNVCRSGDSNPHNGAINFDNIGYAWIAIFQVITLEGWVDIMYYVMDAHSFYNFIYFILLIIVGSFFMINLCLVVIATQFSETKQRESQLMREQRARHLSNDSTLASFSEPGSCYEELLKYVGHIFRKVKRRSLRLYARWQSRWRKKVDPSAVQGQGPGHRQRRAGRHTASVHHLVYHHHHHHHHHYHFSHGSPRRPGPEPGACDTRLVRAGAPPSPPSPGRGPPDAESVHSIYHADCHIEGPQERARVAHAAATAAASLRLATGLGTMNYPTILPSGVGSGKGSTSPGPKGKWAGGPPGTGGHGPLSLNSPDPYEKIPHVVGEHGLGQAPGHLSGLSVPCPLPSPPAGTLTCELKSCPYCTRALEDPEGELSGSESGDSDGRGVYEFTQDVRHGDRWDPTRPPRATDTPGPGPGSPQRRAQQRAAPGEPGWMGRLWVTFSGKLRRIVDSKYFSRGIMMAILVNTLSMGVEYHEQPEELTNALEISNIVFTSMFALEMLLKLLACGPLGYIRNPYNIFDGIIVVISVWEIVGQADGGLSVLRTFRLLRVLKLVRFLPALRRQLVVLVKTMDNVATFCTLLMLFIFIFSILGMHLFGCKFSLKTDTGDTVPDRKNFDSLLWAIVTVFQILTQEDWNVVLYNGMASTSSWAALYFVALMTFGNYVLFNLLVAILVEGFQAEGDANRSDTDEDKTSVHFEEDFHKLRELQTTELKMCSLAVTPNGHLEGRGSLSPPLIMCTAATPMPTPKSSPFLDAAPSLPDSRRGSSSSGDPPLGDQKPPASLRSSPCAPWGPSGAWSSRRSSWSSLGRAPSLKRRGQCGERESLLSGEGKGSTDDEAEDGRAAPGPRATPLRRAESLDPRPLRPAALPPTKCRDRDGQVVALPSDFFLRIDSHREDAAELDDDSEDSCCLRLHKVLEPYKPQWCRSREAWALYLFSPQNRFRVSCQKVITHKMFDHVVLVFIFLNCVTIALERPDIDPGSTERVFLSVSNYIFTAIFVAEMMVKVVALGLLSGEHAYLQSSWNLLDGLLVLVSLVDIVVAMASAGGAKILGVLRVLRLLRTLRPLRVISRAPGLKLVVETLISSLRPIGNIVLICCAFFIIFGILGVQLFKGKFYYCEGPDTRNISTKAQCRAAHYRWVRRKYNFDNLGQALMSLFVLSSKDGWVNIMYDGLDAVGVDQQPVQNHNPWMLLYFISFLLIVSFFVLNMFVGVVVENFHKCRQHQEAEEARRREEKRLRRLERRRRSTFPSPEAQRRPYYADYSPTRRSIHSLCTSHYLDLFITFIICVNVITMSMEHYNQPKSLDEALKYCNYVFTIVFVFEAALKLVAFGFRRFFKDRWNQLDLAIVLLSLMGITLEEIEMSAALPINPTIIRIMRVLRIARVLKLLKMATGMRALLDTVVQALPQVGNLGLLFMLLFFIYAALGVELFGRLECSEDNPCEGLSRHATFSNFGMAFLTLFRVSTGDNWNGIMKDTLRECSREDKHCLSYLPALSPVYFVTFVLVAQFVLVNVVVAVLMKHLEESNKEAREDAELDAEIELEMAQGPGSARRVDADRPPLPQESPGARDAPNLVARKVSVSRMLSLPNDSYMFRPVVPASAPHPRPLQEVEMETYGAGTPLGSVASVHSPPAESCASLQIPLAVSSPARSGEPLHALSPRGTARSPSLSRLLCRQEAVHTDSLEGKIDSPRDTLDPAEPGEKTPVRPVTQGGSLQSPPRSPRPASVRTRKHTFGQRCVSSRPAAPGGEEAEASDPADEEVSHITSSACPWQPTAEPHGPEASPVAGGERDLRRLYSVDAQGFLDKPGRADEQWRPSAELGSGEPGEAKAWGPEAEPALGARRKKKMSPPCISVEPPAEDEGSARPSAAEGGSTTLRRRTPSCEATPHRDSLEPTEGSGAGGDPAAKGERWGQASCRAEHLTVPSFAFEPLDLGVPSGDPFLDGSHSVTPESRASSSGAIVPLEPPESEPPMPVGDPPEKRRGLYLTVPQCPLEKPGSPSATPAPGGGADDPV

Take `CN(C)C(C(=O)N[C@@H]1CCN(c2cncc(C(F)(F)F)c2)C1)c1ccc(C2CC2)cc1` (stereo partly drawn) [Example 138, 2-(4-cyclopropylphenyl)-2-(dimethylamino)-N—((R)-1-(5-(trifluoromethyl)pyridin-3-yl)pyrrolidin-3-yl)acetamide hydrochloride]: the IC50 came to 690 nM.

On to `Cn1ccc2cc(CC(=O)N[C@@H]3CCN(c4cncc(C(F)(F)F)c4)C3)ccc21` [Example 139, (R)-2-(1-methyl-1H-indol-5-yl)-N-(1-(5-(trifluoromethyl)pyridin-3-yl)pyrrolidin-3-yl)acetamide], for which the IC50 is 5.4 nM.

Consider `O=C(Cc1ccc(C(F)(F)F)cc1C(F)(F)F)N[C@@H]1CCN(c2cncc(C(F)(F)F)c2)C1` [Example 140, (R)-2-(2,4-bis(trifluoromethyl)phenyl)-N-(1-(5-(trifluoromethyl)pyridin-3-yl)pyrrolidin-3-yl)acetamide], for which the concentration for half-maximal inhibition (IC50) was determined as 1100 nM.

Turning to `O=C(Cc1ccc(C(F)(F)F)cc1F)N[C@@H]1CCN(c2cncc(C(F)(F)F)c2)C1` [Example 141, (R)-2-(2-fluoro-4-(trifluoromethyl)phenyl)-N-(1-(5-(trifluoromethyl)pyridin-3-yl)pyrrolidin-3-yl)acetamide], the IC50 amounted to 180 nM.

Turning to `Cn1ncc2cc(CC(=O)N[C@@H]3CCN(c4cncc(C(F)(F)F)c4)C3)ccc21` [Example 142, (R)-2-(1-methyl-1H-indazol-5-yl)-N-(1-(5-(trifluoromethyl)pyridin-3-yl)pyrrolidin-3-yl)acetamide], the IC50 amounted to 9.4 nM.

In the case of `Cn1ncc2cc(CC(=O)N[C@@H]3CCN(c4nc(C(F)(F)F)cs4)C3)ccc21` [Example 143, (R)-2-(1-methyl-1H-indazol-5-yl)-N-(1-(4-(trifluoromethyl)thiazol-2-yl)pyrrolidin-3-yl)acetamide], the IC50 was found to be 120 nM.

As for `CC1(C)CN(c2ccc(CC(=O)N[C@@H]3CCN(c4cncc(C(F)(F)F)c4)C3)cc2)CCO1` [Example 145, (R)-2-(4-(2,2-dimethylmorpholino)phenyl)-N-(1-(5-(trifluoromethyl)pyridin-3-yl)pyrrolidin-3-yl)acetamide], the IC50 is 130 nM.

Consider `O=C(Cc1ccc(-n2cccn2)cc1)N[C@@H]1CCN(c2cncc(C(F)(F)F)c2)C1` [Example 146, (R)-2-(4-(1H-pyrazol-1-yl)phenyl)-N-(1-(5-(trifluoromethyl)pyridin-3-yl)pyrrolidin-3-yl)acetamide], for which the IC50 amounted to 23 nM.

In the case of `C[C@@]1(NC(=O)Cc2ccc(N3CCOCC3)cc2)CCN(c2cncc(C(F)(F)F)c2)C1` [Example 147, (R)—N-(3-methyl-1-(5-(trifluoromethyl)pyridin-3-yl)pyrrolidin-3-yl)-2-(4-morpholinophenyl)acetamide], the IC50 was 170 nM.

Consider `C[C@@]1(NC(=O)Cc2ccc(C3CC3)cc2)CCN(c2cncc(C(F)(F)F)c2)C1` [Example 148, (R)-2-(4-cyclopropylphenyl)-N-(3-methyl-1-(5-(trifluoromethyl)pyridin-3-yl)pyrrolidin-3-yl)acetamide], for which the IC50 was found to be 200 nM.

Take `O=C(Cc1ccc(N2C3CCC2COC3)cc1)N[C@@H]1CCN(c2cncc(C(F)(F)F)c2)C1` [Example 149, 2-(4-(3-Oxa-8-azabicyclo[3.2.1]octan-8-yl)phenyl)-N—((R)-1-(5-(trifluoromethyl)pyridin-3-yl)pyrrolidin-3-yl) acetamide]: the IC50 was 69 nM.

`O=C(Cc1ccc(N2C3CCC2COC3)cc1)N[C@@H]1CCN(c2ccc(C(F)(F)F)nc2)C1` [Example 150, 2-(4-(3-Oxa-8-azabicyclo[3.2.1]octan-8-yl)phenyl)-N—((R)-1-(6-(trifluoromethyl)pyridin-3-yl)pyrrolidin-3-yl)acetamide]: the IC50 is 400 nM.

Turning to `O=C(Cc1ccc2ocnc2c1)N[C@@H]1CCN(c2ccc(C(F)(F)F)nc2)C1` [Example 151, (R)-2-(benzo[d]oxazol-5-yl)-N-(1-(6-(trifluoromethyl)pyridin-3-yl)pyrrolidin-3-yl)acetamide], the half-inhibitory concentration (IC50) was 2700 nM.

On to `O=C(Cc1ccc2ocnc2c1)N[C@@H]1CCN(c2cncc(C(F)(F)F)c2)C1` [Example 152, (R)-2-(benzo[d]oxazol-5-yl)-N-(1-(5-(trifluoromethyl)pyridin-3-yl)pyrrolidin-3-yl)acetamide], for which the IC50 was found to be 1300 nM.

For `Cc1nc2cc(CC(=O)N[C@@H]3CCN(c4cncc(C(F)(F)F)c4)C3)ccc2o1` [Example 153, (R)-2-(2-methylbenzo[d]oxazol-5-yl)-N-(1-(5-(trifluoromethyl)pyridin-3-yl)pyrrolidin-3-yl)acetamide], the IC50 came to 570 nM.

For `Cc1nc2cc(CC(=O)N[C@@H]3CCN(c4ccc(C(F)(F)F)nc4)C3)ccc2o1` [Example 154, (R)-2-(2-methylbenzo[d]oxazol-5-yl)-N-(1-(6-(trifluoromethyl)pyridin-3-yl)pyrrolidin-3-yl)acetamide], the IC50 came to 1000 nM.

Consider `O=C(Cc1ccc(N2C[C@@H]3CC[C@H]2CO3)cc1)N[C@@H]1CCN(c2cncc(C(F)(F)F)c2)C1` [Example 155, 2-(4-((1S,4S)-2-oxa-5-azabicyclo[2.2.2]octan-5-yl)phenyl)-N—((R)-1-(5-(trifluoromethyl)pyridin-3-yl)pyrrolidin-3-yl)acetamide], for which the IC50 amounted to 75 nM.

Turning to `O=C(Cc1ccc(N2C[C@@H]3CC[C@H]2CO3)cc1)N[C@@H]1CCN(c2ccc(C(F)(F)F)nc2)C1` [Example 156, 2-(4-((1S,4S)-2-oxa-5-azabicyclo[2.2.2]octan-5-yl)phenyl)-N—((R)-1-(6-(trifluoromethyl)pyridin-3-yl)pyrrolidin-3-yl)acetamide], the IC50 is 1300 nM.

Consider `O=C(Cc1ccc2ncsc2c1)N[C@@H]1CCN(c2cncc(C(F)(F)F)c2)C1` [Example 157, (R)-2-(benzo[d]thiazol-6-yl)-N-(1-(5-(trifluoromethyl)pyridin-3-yl)pyrrolidin-3-yl)acetamide], for which the IC50 is 280 nM.

Take `O=C(Cc1ccc2ncsc2c1)N[C@@H]1CCN(c2ccc(C(F)(F)F)nc2)C1` [Example 158, (R)-2-(benzo[d]thiazol-6-yl)-N-(1-(6-(trifluoromethyl)pyridin-3-yl)pyrrolidin-3-yl)acetamide]: the 50% inhibitory concentration (IC50) is 1100 nM.

For the compound `O=C(Cc1ccc2[nH]ncc2c1)N[C@@H]1CCN(c2cncc(C(F)(F)F)c2)C1` [Example 159, (R)-2-(1H-indazol-5-yl)-N-(1-(5-(trifluoromethyl)pyridin-3-yl)pyrrolidin-3-yl)acetamide], the IC50 turned out to be 510 nM.

As for `O=C(Cc1ccc2[nH]ncc2c1)N[C@@H]1CCN(c2ccc(C(F)(F)F)nc2)C1` [Example 160, (R)-2-(1H-indazol-5-yl)-N-(1-(6-(trifluoromethyl)pyridin-3-yl)pyrrolidin-3-yl)acetamide], the IC50 was determined as 6400 nM.

Consider `O=C(Cc1ccc(C2CC2)cc1)NC1(C(F)(F)F)CCN(c2cncc(C(F)(F)F)c2)C1` (stereo not drawn) [Example 161, 2-(4-cyclopropylphenyl)-N-(3-(trifluoromethyl)-1-(5-(trifluoromethyl)pyridin-3-yl)pyrrolidin-3-yl)acetamide], for which the IC50 turned out to be 260 nM.

For the compound `O=C(Cc1ccc(C(F)(F)F)cc1)NC1(C(F)(F)F)CCN(c2cncc(C(F)(F)F)c2)C1` (stereo not drawn) [Example 162, N-(3-(trifluoromethyl)-1-(5-(trifluoromethyl)pyridin-3-yl)pyrrolidin-3-yl)-2-(4-(trifluoromethyl)phenyl)acetamide], the IC50 was determined as 560 nM.

As for `O=C(Cc1ccc2[nH]nnc2c1)N[C@@H]1CCN(c2cncc(C(F)(F)F)c2)C1` [Example 163, (R)-2-(1H-benzo[d][1,2,3]triazol-5-yl)-N-(1-(5-(trifluoromethyl)pyridin-3-yl)pyrrolidin-3-yl)acetamide], the 50% inhibitory concentration (IC50) came to 1400 nM.

For the compound `O=C(Cc1ccc2[nH]nnc2c1)N[C@@H]1CCN(c2ccc(C(F)(F)F)nc2)C1` [Example 164, (R)-2-(1H-benzo[d][1,2,3]triazol-5-yl)-N-(1-(6-(trifluoromethyl)pyridin-3-yl)pyrrolidin-3-yl)acetamide], the IC50 was 2900 nM.

For `Cn1nnc2cc(CC(=O)N[C@@H]3CCN(c4cncc(C(F)(F)F)c4)C3)ccc21` [Example 167, (R)-2-(1-methyl-1H-benzo[d][1,2,3]triazol-5-yl)-N-(1-(5-(trifluoromethyl)pyridin-3-yl)pyrrolidin-3-yl)acetamide], the IC50 is 160 nM.

On to `Cn1nnc2cc(CC(=O)N[C@@H]3CCN(c4ccc(C(F)(F)F)nc4)C3)ccc21` [Example 168, (R)-2-(1-methyl-1H-benzo[d][1,2,3]triazol-5-yl)-N-(1-(6-(trifluoromethyl)pyridin-3-yl)pyrrolidin-3-yl)acetamide], for which the IC50 stood at 170 nM.

Regarding `O=C(Cc1ccc(C2CC2)cc1)NC1CN(c2ccc(F)c(C(F)(F)F)c2)C1` [Example 170, 2-(4-cyclopropylphenyl)-N-(1-(4-fluoro-3-(trifluoromethyl)phenyl)azetidin-3-yl)acetamide], the IC50 worked out at 880 nM.

In the case of `O=C(Cc1ccc(Br)cc1)N[C@@H]1CCN(c2cncc(C(F)(F)F)c2)C1` [Example 171, (R)-2-(4-bromophenyl)-N-(1-(5-(trifluoromethyl)pyridin-3-yl)pyrrolidin-3-yl)acetamide], the IC50 came to 110 nM.

With `O=C(Cc1ccc(C2CC2)cc1)N[C@@H]1CCN(c2nc3ccc(F)cc3s2)C1` [Example 172, (R)-2-(4-cyclopropylphenyl)-N-(1-(6-fluorobenzo[d]thiazol-2-yl)pyrrolidin-3-yl)acetamide], the IC50 turned out to be 550 nM.

For `O=C(Cc1ccc(C2CC2)cc1)N[C@@H]1CCN(c2ncc(Br)s2)C1` [Example 173, (R)—N-(1-(5-bromothiazol-2-yl)pyrrolidin-3-yl)-2-(4-cyclopropylphenyl)acetamide], the IC50 came out at 1100 nM.

As to `O=C(Cc1ccc(C2CC2)cc1)N[C@@H]1CCN(c2ccc(F)c(C(F)(F)F)c2)C1` [Example 174, (R)-2-(4-cyclopropylphenyl)-N-(1-(4-fluoro-3-(trifluoromethyl)phenyl)pyrrolidin-3-yl)acetamide], the IC50 was 200 nM.
